Measurements reported in patent US20120165331A1, “Di/tri-aza-spiro-C9-C11alkanes” (priority 2010, published 2012).

Experiments:
human orexin 1 receptor [1] = biological target: T1, human orexin 1 receptor (Homo sapiens, UniProt O43613); test: Radioligand binding assay ([3H]-SB649868 competition), human orexin 1 receptor; details: radioligand [3H]-SB649868; read-out: Binding hOx1R Kd
T1 construct: expressed in transfected cells
T1 sequence (O43613 1-425): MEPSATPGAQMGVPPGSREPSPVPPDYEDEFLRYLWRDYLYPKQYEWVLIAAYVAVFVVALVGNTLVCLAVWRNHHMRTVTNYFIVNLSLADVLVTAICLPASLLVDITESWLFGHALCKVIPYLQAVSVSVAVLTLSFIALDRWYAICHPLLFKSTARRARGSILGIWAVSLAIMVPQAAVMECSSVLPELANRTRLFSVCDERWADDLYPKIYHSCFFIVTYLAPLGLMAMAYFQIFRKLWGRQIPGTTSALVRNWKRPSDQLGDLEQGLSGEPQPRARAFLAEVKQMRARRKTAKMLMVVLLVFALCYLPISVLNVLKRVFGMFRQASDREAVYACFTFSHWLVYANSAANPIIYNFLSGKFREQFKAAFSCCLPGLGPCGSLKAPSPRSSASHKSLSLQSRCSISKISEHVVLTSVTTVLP
Experimental: (§1) Radioligand Binding Assay
(§2) For crude cell membrane preparations, cells (CHO, Chinese hamster ovary or HEK, human embryonic kidney) expressing human orexin 1 or human orexin 2 receptors, were washed with HEPES (10 mM, pH 7.5), scraped off the culture plates with the same buffer, and centrifuged at 4° C. for 5 min at 2500×g. The cell pellet was either stored at −80° C. or used directly. Before the experiments, cell membranes were re-suspended in binding assay buffer (10 mM HEPES, 0.5% (w/v) bovine serum albumin, pH 7.5) by homogenisation with a Polytron homogeniser at 50 Hz for 20 s. Cell membranes were also used as made available by commercial providers.
(§3) Bound radioactivity was measured, and data were analysed with the program XLFIT or Graphpad Prism. Protein concentration was determined according to the Bradford/BioRad Protein Assay Kit.
(§4) In competition experiments, cell homogenates (150 μl) were incubated in assay buffer (10 mM HEPES, pH 7.5, 0.5% (w/v) bovine serum albumin, 5 mM MgCl2, 1 mMCaCl2, and tween 0.05%) for 1 h at room temperature with about 1 nM of the radioligand [^3H]-SB649868, 66 Ci/mmole, 50 μl), and with various concentrations of compounds of the invention (50 μl) in triplicates; non-specific binding was determined in the presence of almorexant (10 μM). Reactions were terminated by vacuum filtration, 3 washes of ice cold wash buffer (Tris-HCl pH 7.4/10 mM, with NaCl 154 mM). Competition data is expressed in Table 1 as Kd [μM].

human orexin 2 receptor [2] = biological target: T2, human orexin 2 receptor (Homo sapiens, UniProt O43614); test: Radioligand binding assay ([3H]-SB649868 competition), human orexin 2 receptor; details: radioligand [3H]-SB649868; read-out: Binding hOx2R Kd
T2 construct: expressed in transfected cells
T2 sequence (O43614 1-444): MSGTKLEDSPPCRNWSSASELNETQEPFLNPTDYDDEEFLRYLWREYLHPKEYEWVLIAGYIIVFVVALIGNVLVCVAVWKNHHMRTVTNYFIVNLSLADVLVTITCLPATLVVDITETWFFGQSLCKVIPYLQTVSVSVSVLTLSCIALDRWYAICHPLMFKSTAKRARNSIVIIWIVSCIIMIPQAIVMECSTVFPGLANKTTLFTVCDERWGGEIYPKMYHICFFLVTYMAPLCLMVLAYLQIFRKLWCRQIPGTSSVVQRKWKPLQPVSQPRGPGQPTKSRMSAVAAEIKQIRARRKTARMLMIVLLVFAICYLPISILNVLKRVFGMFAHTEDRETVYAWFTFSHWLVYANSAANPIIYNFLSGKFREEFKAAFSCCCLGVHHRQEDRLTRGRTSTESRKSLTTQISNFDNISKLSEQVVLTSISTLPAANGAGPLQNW
Experimental: as §1, §2, §3, §4

human orexin 1 receptor [3] = biological target: T1, human orexin 1 receptor; test: Calcium accumulation in cells (FLIPR), antagonism of orexin A, human orexin 1 receptor; type: cell-based; details: calcium accumulation, antagonism of orexin A, Cheng-Prusoff corrected; read-out: FLIPR hOx1R Ki
human orexin 2 receptor [4] = biological target: T2, human orexin 2 receptor; test: Calcium accumulation in cells (FLIPR), antagonism of orexin A, human orexin 2 receptor; type: cell-based; details: calcium accumulation, antagonism of orexin A, Cheng-Prusoff corrected; read-out: FLIPR hOx2R Ki

Work on Cc1cc(C)nc(N2CCC3(CC2)NCCN(Cc2nn(C)cc2-c2cccc(OCC(C)C)c2)C3=O)n1 [Example 1.53, 9-(4,6-Dimethyl-pyrimidin-2-yl)-4-((4-(3-isobutoxyphenyl)-1-methyl-1H-pyrazol-3-yl)methyl)-1,4,9-triazaspiro[5.5] undecan-5-one] yielded a Kd (human orexin 1 receptor [1]) of 319 nM, a Kd (human orexin 2 receptor [2]) of 45 nM and a Ki (human orexin 1 receptor [3]) of 331 nM. It also gave a Ki (human orexin 2 receptor [4]) of 7 nM.

Molecule COc1ccc2[nH]nc(CN3CCNC4(CCN(c5nc(C)cc(C)n5)CC4)C3=O)c2c1 [Example 1.56, 9-(4,6-Dimethyl-pyrimidin-2-yl)-4-((5-methoxy-1H-indazol-3-yl)methyl)-1,4,9-triazaspiro[5.5] undecan-5-one] has a Kd (human orexin 1 receptor [1]) of 492 nM, a Kd (human orexin 2 receptor [2]) of 11 nM and a Ki (human orexin 1 receptor [3]) of 594 nM. It also gave a Ki (human orexin 2 receptor [4]) of 2.7 nM.

Cc1cc(C)nc(N2CCC3(CC2)NCCN(Cc2nn(C)cc2-c2cccc(OC4CC4)c2)C3=O)n1 [Example 1.62, 4-((4-(3-Cyclo-propoxyphenyl)-1-methyl-1H-pyrazol-3-yl)methyl)-9-(4,6-dimethyl-pyrimidin-2-yl)-1,4,9-triazaspiro[5.5] undecan-5-one] was tested, and the Kd (human orexin 1 receptor [1]) was 142 nM, the Kd (human orexin 2 receptor [2]) was 8 nM and the Ki (human orexin 1 receptor [3]) was 163 nM. It also gave a Ki (human orexin 2 receptor [4]) of 1 nM.

COc1cc(C)nc(N2CCC3(CC2)NCCN(Cc2n[nH]c4ccccc24)C3=O)n1 [Example 1.65, 4-((1H-indazol-3-yl)methyl)-9-(4-methoxy-6-methyl-pyrimidin-2-yl)-1,4,9-triazaspiro[5.5] undecan-5-one] was tested, and the Kd (human orexin 1 receptor [1]) was 1160 nM, the Kd (human orexin 2 receptor [2]) was 58 nM and the Ki (human orexin 1 receptor [3]) was 1580 nM. It also gave a Ki (human orexin 2 receptor [4]) of 21 nM.

CCc1cccc(-c2cn(C)nc2CN2CCNC3(CCN(c4nc(C)cc(C)n4)CC3)C2=O)c1 [Example 1.67, 9-(4,6-dimethyl-pyrimidin-2-yl)-4-((4-(3-ethyl-phenyl)-1-methyl-1H-pyrazol-3-yl)methyl)-1,4,9-triazaspiro[5.5] undecan-5-one] gave a Kd (human orexin 1 receptor [1]) of 1770 nM, a Kd (human orexin 2 receptor [2]) of 50 nM and a Ki (human orexin 1 receptor [3]) of 1140 nM. For the same molecule, the Ki (human orexin 2 receptor [4]) was 5 nM.

Cc1cc(C)nc(N2CCC3(CC2)NCCN(Cc2nn(C)cc2-c2cccc(C(C)C)c2)C3=O)n1 [Example 1.68, 9-(4,6-dimethyl-pyrimidin-2-yl)-4-((4-(3-isopropyl-phenyl)-1-methyl-1H-pyrazol-3-yl)methyl)-1,4,9-triazaspiro[5.5] undecan-5-one] gave a Kd (human orexin 1 receptor [1]) of 1440 nM, a Kd (human orexin 2 receptor [2]) of 13 nM and a Ki (human orexin 1 receptor [3]) of 945 nM. It also gave a Ki (human orexin 2 receptor [4]) of 4 nM.

Work on CCC(=O)c1cccc(-c2cn(C)nc2CN2CCNC3(CCN(c4nc(C)cc(C)n4)CC3)C2=O)c1 [Example 1.70, 9-(4,6-dimethyl-pyrimidin-2-yl)-4-((1-methyl-4-(3-propionylphenyl)-1H-pyrazol-3-yl)methyl)-1,4,9-triazaspiro[5.5] undecan-5-one] yielded a Kd (human orexin 1 receptor [1]) of 465 nM, a Kd (human orexin 2 receptor [2]) of 21 nM and a Ki (human orexin 1 receptor [3]) of 856 nM. For the same molecule, the Ki (human orexin 2 receptor [4]) was 2 nM.

Cc1cc(C)nc(N2CCC3(CC2)NCCN(Cc2nn(C)cc2-c2cccc(C(F)F)c2)C3=O)n1 [Example 1.71, 4-((4-(3-(difluoromethyl)phenyl)-1-methyl-1H-pyrazol-3-yl)methyl)-9-(4,6-dimethylpyrimidin-2-yl)-1,4,9-triazaspiro[5.5] undecan-5-one] was tested, and the Kd (human orexin 1 receptor [1]) was 1700 nM, the Kd (human orexin 2 receptor [2]) was 227 nM and the Ki (human orexin 1 receptor [3]) was 2060 nM. The Ki (human orexin 2 receptor [4]) was 30 nM.

In the case of Cc1cc(C)nc(N2CCC3(CC2)NCCN(Cc2nn(C)cc2-c2cccc(OCCOC(C)C)c2)C3=O)n1 [Example 1.72, 9-(4,6-dimethyl-pyrimidin-2-yl)-4-((4-(3-(2-iso-propoxyethoxy)phenyl)-1-methyl-1H-pyrazol-3-yl)methyl)-1,4,9-triazaspiro[5.5] undecan-5-one], the Kd (human orexin 1 receptor [1]) is reported as 846 nM, the Kd (human orexin 2 receptor [2]) is reported as 203 nM and the Ki (human orexin 1 receptor [3]) is reported as 1590 nM. The Ki (human orexin 2 receptor [4]) was 49 nM.

Cc1cc(C)nc(N2CCC3(CC2)NCCN(Cc2nn(C)cc2-c2cccc(N4CCOCC4)c2)C3=O)n1 [Example 1.73, 9-(4,6-dimethyl-pyrimidin-2-yl)-4-((1-methyl-4-(3-morpholinophenyl)-1H-pyrazol-3-yl)methyl)-1,4,9-triazaspiro[5.5] undecan-5-one] showed a Kd (human orexin 1 receptor [1]) of 1380 nM, a Kd (human orexin 2 receptor [2]) of 163 nM and a Ki (human orexin 1 receptor [3]) of 862 nM. It also gave a Ki (human orexin 2 receptor [4]) of 20 nM.

With COc1cc(-c2nn(C)nc2CN2CCNC3(CCN(c4nc(C)cc(C)n4)CC3)C2=O)ccn1 [Example 1.74, 9-(4,6-dimethyl-pyrimidin-2-yl)-4-((5-(2-methoxy-pyridin-4-yl)-2-methyl-2H-1,2,3-triazol-4-yl)methyl)-1,4,9-triazaspiro[5.5] undecan-5-one] the Kd (human orexin 1 receptor [1]) was 2500 nM, the Kd (human orexin 2 receptor [2]) was 127 nM and the Ki (human orexin 1 receptor [3]) was 4270 nM. For the same molecule, the Ki (human orexin 2 receptor [4]) was 48 nM.

With Cc1cc(C)nc(N2CCC3(CC2)NCCN(Cc2nn(C)nc2-c2cccc(N4CCOCC4)c2)C3=O)n1 [Example 1.77] the Kd (human orexin 1 receptor [1]) was 2840 nM, the Kd (human orexin 2 receptor [2]) was 225 nM and the Ki (human orexin 1 receptor [3]) was 2880 nM. It also gave a Ki (human orexin 2 receptor [4]) of 56 nM.

Work on COCCOc1cccc(-c2nn(C)nc2CN2CCNC3(CCN(c4nc(C)cc(C)n4)CC3)C2=O)c1 [Example 1.78, 9-(4,6-dimethyl-pyrimidin-2-yl)-4-((5-(3-(2-methoxyethoxy)phenyl)-2-methyl-2H-1,2,3-triazol-4-yl)methyl)-1,4,9-triazaspiro[5.5] undecan-5-one] yielded a Kd (human orexin 1 receptor [1]) of 709 nM, a Kd (human orexin 2 receptor [2]) of 28 nM and a Ki (human orexin 1 receptor [3]) of 1870 nM. The Ki (human orexin 2 receptor [4]) was 9 nM.

Work on Cc1cc(C)nc(N2CCC3(CC2)NCCN(Cc2nn(C)nc2-c2cccc(OC(C)C)c2)C3=O)n1 [Example 1.79, 9-(4,6-dimethyl-pyrimidin-2-yl)-4-((5-(3-isopropoxy-phenyl)-2-methyl-2H-1,2,3-triazol-4-yl)methyl)-1,4,9-triazaspiro[5.5] undecan-5-one] yielded a Kd (human orexin 1 receptor [1]) of 535 nM, a Kd (human orexin 2 receptor [2]) of 22 nM and a Ki (human orexin 1 receptor [3]) of 166 nM. It also gave a Ki (human orexin 2 receptor [4]) of 3.7 nM.

Molecule Cc1cc(C)nc(N2CCC3(CC2)NCCN(Cc2nn(C)nc2-c2ccc4c(c2)OCCO4)C3=O)n1 [Example 1.80, 4-((5-(2,3-dihydro-benzo[b][1,4]dioxin-6-yl)-2-methyl-2H-1,2,3-triazol-4-yl)methyl)-9-(4,6-dimethylpyrimidin-2-yl)-1,4,9-triazaspiro[5.5] undecan-5-one] has a Kd (human orexin 1 receptor [1]) of 860 nM, a Kd (human orexin 2 receptor [2]) of 27 nM and a Ki (human orexin 1 receptor [3]) of 501 nM. For the same molecule, the Ki (human orexin 2 receptor [4]) was 4.3 nM.

Cc1cc(C)nc(N2CCC3(CC2)OCCN(Cc2c[nH]c4ccccc24)C3=O)n1 [Example 2.1, 4-((1H-indol-3-yl)methyl)-9-(4,6-dimethylpyrimidin-2-yl)-1-oxa-4,9-diazaspiro[5.5]undecan-5-one] showed a Kd (human orexin 1 receptor [1]) of 1320 nM, a Kd (human orexin 2 receptor [2]) of 31 nM and a Ki (human orexin 1 receptor [3]) of 1700 nM. The Ki (human orexin 2 receptor [4]) was 29 nM.

In the case of Cc1cc(C)nc(N2CCC3(CC2)OCCN(Cc2n[nH]c4ccccc24)C3=O)n1 [Example 2.2, 9-(4,6-Dimethyl-pyrimidin-2-yl)-4-(1H-indazol-3-ylmethyl)-1-oxa-4,9-diaza-spiro[5.5]undecan-5-one], the Kd (human orexin 1 receptor [1]) is reported as 1840 nM, the Kd (human orexin 2 receptor [2]) is reported as 71 nM and the Ki (human orexin 1 receptor [3]) is reported as 1800 nM. It also gave a Ki (human orexin 2 receptor [4]) of 55 nM.

Cc1cc(C)nc(N2CCC3(CC2)OCCN(Cc2c[nH]c4ccc(F)cc24)C3=O)n1 [Example 2.6, 9-(4,6-Dimethylpyrimidin-2-yl)-4-((5-fluoro-1H-indol-3-yl)methyl)-1-oxa-4,9-diazaspiro[5.5]undecan-5-one] gave a Kd (human orexin 1 receptor [1]) of 1060 nM, a Kd (human orexin 2 receptor [2]) of 26 nM and a Ki (human orexin 1 receptor [3]) of 1060 nM. It also gave a Ki (human orexin 2 receptor [4]) of 13 nM.

For COc1ccc2[nH]cc(CN3CCOC4(CCN(c5nc(C)cc(C)n5)CC4)C3=O)c2c1 [Example 2.7, 9-(4,6-Dimethylpyrimidin-2-yl)-4-((5-methoxy-1H-indol-3-yl)methyl)-1-oxa-4,9-diazaspiro[5.5]undecan-5-one], the Kd (human orexin 1 receptor [1]) was 213 nM, the Kd (human orexin 2 receptor [2]) was 6 nM and the Ki (human orexin 1 receptor [3]) was 258 nM. The Ki (human orexin 2 receptor [4]) was 1 nM.
